Test results: patent US20050065194A1, “Methods of treating conditions associated with an Edg-2 receptor” (priority 2003, published 2005)

Legend:
Edg-4 receptor = biological target: T1, Edg-4 receptor (Homo sapiens, UniProt Q9HBW0); test: LPA/S1P-stimulated calcium mobilization assay (FLIPR), HTC cells expressing Edg 4; type: cell-based; conditions: for inhibition of LPA-stimulated calcium increases: FIG. 1 / FIG. 2
T1 construct: expressed in transfected cells; host or cells: HTC (rat hepatoma) cells

Edg-2 receptor = biological target: T2, Edg-2 receptor (Homo sapiens, UniProt Q92633); test: LPA/S1P-stimulated calcium mobilization assay (FLIPR), HTC cells expressing Edg 2; type: cell-based; conditions: for inhibition of the Edg 2 receptor: FIG. 1 / FIG. 2; for IC50: HTC cells expressing Edg 2; for Fold Selective: selectivity for Edg-2 relative to other Edg receptors
T2 construct: expressed in transfected cells
From the text: Specific assays for Edg-2 receptor activity are known to those of skill in the art. For example, cells expressing Edg-2 receptors can be contacted with a membrane-permeant calcium sensitive dye such as Fluo-4 AM or a proprietary calcium dye loading kit (e.g., FLIPR Calcium Assay kit, Molecular Devices, Sunnyvale, Calif.). Intracellular calcium is capable of binding to the dye and emitting fluorescent radiation when illuminated at the appropriate wavelength. The cells can thus be illuminated an appropriate wavelength for the dye and any emitting light can be captured by a cooled CCD camera. Changes in fluorescence indicate changes in intracellular calcium resulting from the activation of an Edg-2 receptor. Such changes can be measured advantageously in whole cells in “real-time” (Berridge et al., Nature Reviews 2000, 1:11-21).
LPA receptors such as Edg-2, couple to calcium effector pathways, and result in increases in intracellular calcium following receptor activation (An, 1998, J. Cell. Biochem. Supp., 30-31: 147-157). This biological response lends itself to a very efficient, high-throughput screen using a Fluorescence Imaging Plate Reader (FLIPR; Molecular Devices, Sunnyvale, Calif.). The FLIPR system is a real-time, cell-based assay system with continuous fluorescence detection using a cooled CCD camera. The FLIPR system was used to developing an Edg-2 receptor screen. Rat hepatoma cells stably expressing Edg-2 receptor were plated on 384-well plates and loaded with a calcium dye loading kit (Molecular Devices, Sunnyvale, Calif.) for 1 hour at room temperature. Cells were then placed on the FLIPR^384 (Molecular Devices, Sunnyvale, Calif.) and excited by an argon laser at 488 nm. The data for the entire 384-well plate was updated every second. An integrated robotic pipettor allowed for simultaneous compound addition into each individual well in the plate.

Edg 3 receptor = biological target: T3, Edg 3 receptor (Homo sapiens, UniProt Q99500); test: LPA/S1P-stimulated calcium mobilization assay (FLIPR), HTC cells expressing Edg 3; type: cell-based; conditions: for inhibition of S1P-stimulated calcium increases: FIG. 1 / FIG. 2
T3 construct: expressed in transfected cells; host or cells: HTC (rat hepatoma) cells

Edg 8 receptor = biological target: T4, Edg 8 receptor (Homo sapiens, UniProt Q9H228); test: LPA/S1P-stimulated calcium mobilization assay (FLIPR), HTC cells expressing Edg 8; type: cell-based; conditions: for inhibition of S1P-stimulated calcium increases: FIG. 1 / FIG. 2
T4 construct: expressed in transfected cells; host or cells: HTC (rat hepatoma) cells

[1] = test system: various targets tested, including other GPCRs, ion channels, and enzymes; test: Pharmacology profiling (selectivity assays), panel of non-Edg targets of Table 2; type: binding; conditions: all targets listed in Table 2 (bradykinin, CB2, chemokine, dopamine, histamine, muscarinic, NPY, opiate, prostanoid, purinergic, serotonin, sigma, sodium channel, tachykinin, growth factors etc.)
Dopamine D2L = Dopamine D2L (Homo sapiens, UniProt P14416); conditions: significance criteria ≧50% of max stimulation or inhibition; Table 2
Protocol: (§1) In order to test the selectivity of compounds, various radioligand binding assays were performed using numerous non-Edg receptor targets as listed below.
(§2) A radioligand binding assay was performed using adrenergic α1 according to the method of Greengrass and Bremner 1979, Eur. J. Pharmacol. 55:323-326. A radioligand binding assay was performed using adrenergic α2 according to the method of Boyajian and Leslie, 1987, J. Pharmacol. Exp. Ther. 241:1092-1098. A radioligand binding assay was performed using adrenergic β according to the method of Feve et al., 1994, Proc. Natl. Acad. Sci USA 91:5677-5681. A radioligand binding assay was performed using angiotensin AT2 according to the method of Whitebread et al., 1991, Biochem. Biophys. Res. Comm. 181:1365-1371. A radioligand binding assay was performed using calcium channel Type L, dihydropyridine according to the method of Ehlert et al., 1982, Life Sci. 30:2191-2202. A radioligand binding assay was performed using dopamine D2L according to the method of Bunzo et al., 1988, Nature 336:783-787. A radioligand binding assay was performed using endothelin ETA according to the method of Mihara et al., 1994, J. Pharmacol. Exp Ther. 268:1122-1127. A radioligand binding assay was performed using histamine H1 Central according to the method of Hill et al., 1978, J. Neurochem. 31:997-1004. A radioligand binding assay was performed using Muscarinic non-selective, Central according to the method of Luthin and Wolfe, 1984, J. Pharmacol. Exp. Ther. 228:648-655. A radioligand binding assay was performed using serotonin 5-HT1, non-selective according to the method of Middlemiss, 1984, Eur. J. Pharmacol. 101:289-293).

Histamine H1, Central = Histamine H1, Central (Cavia porcellus, UniProt P31389); conditions: significance criteria ≧50% of max stimulation or inhibition; Table 2
Protocol: as §1, §2

[2] = test system: Serotonin 5-HT1, non-selective; conditions: significance criteria ≧50% of max stimulation or inhibition; Table 2
Protocol: as §1, §2

Angiotensin AT2 = Angiotensin AT2 (Homo sapiens, UniProt P50052); conditions: significance criteria ≧50% of max stimulation or inhibition; Table 2
Protocol: as §1, §2

[3] = test system: Calcium Channel Type L, Dihydropyridine; conditions: significance criteria ≧50% of max stimulation or inhibition; Table 2
Protocol: as §1, §2

Endothelin ETA = Endothelin ETA (Homo sapiens, UniProt P25101); conditions: significance criteria ≧50% of max stimulation or inhibition; Table 2
Protocol: as §1, §2

Adrenergic β = conditions: significance criteria ≧50% of max stimulation or inhibition; Table 2
Protocol: as §1, §2

[4] = test system: Muscarinic non-selective, Central; conditions: significance criteria ≧50% of max stimulation or inhibition; Table 2
Protocol: as §1, §2

Adrenergic α2 = conditions: significance criteria ≧50% of max stimulation or inhibition; Table 2
Protocol: as §1, §2

[5] = test system: Adrenergic α1, non-selective; conditions: significance criteria ≧50% of max stimulation or inhibition; Table 2
Protocol: as §1, §2

Edg 1 receptor = biological target: T5, Edg 1 receptor (Homo sapiens, UniProt P21453); test: LPA/S1P-stimulated calcium mobilization assay (FLIPR), HTC cells expressing Edg 1; type: cell-based; conditions: for inhibition of S1P-stimulated calcium increases: FIG. 1 / FIG. 2
T5 construct: expressed in transfected cells; host or cells: HTC (rat hepatoma) cells

Edg-7 receptor = biological target: T6, Edg-7 receptor (Homo sapiens, UniProt Q9UBY5); test: LPA/S1P-stimulated calcium mobilization assay (FLIPR), HTC cells expressing Edg 7; type: cell-based; conditions: for inhibition of LPA-stimulated calcium increases: FIG. 1 / FIG. 2
T6 construct: expressed in transfected cells; host or cells: HTC (rat hepatoma) cells
T6 sequence (Q9UBY5 1-353): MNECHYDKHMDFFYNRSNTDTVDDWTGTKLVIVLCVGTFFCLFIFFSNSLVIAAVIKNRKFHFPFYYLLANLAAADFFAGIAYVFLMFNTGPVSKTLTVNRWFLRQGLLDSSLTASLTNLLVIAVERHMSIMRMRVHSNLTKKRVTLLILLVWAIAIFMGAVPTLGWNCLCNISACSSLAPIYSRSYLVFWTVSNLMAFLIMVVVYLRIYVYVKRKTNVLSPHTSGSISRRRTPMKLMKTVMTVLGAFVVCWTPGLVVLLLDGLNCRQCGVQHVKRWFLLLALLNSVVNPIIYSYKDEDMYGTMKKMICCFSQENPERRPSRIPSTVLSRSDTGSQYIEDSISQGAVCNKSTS

Edg 5 receptor = biological target: T7, Edg 5 receptor (Homo sapiens, UniProt O95136); test: LPA/S1P-stimulated calcium mobilization assay (FLIPR), HTC cells expressing Edg 5; type: cell-based; conditions: for inhibition of S1P-stimulated calcium increases: FIG. 1 / FIG. 2
T7 construct: expressed in transfected cells; host or cells: HTC (rat hepatoma) cells

[6] = test system: immortalized ovarian surface epithelial cells; test: LPA-stimulated calcium mobilization in immortalized ovarian surface epithelial cells; type: cell-based; conditions: 10 μM compound, FIG. 3
[7] = test system: forskolin-stimulated cAMP production; test: cAMP assay: LPA inhibition of forskolin-stimulated cAMP production; type: cell-based; conditions: FIG. 4
From the text: Because cAMP acts a second messenger in cell signaling, activating protein kinases that in turn phosphorylate enzymes and transcription factors, cAMP concentration is frequently indicative of the activation state of downstream signaling pathways. For GPCRs like the Edg receptors, coupling via a Gαi pathway results in inhibition of adenylyl cyclase activity, the key enzyme involved in breakdown of ATP and formation of cAMP. Thus, assays can be designed to measure inhibition of adenylyl cyclase activity, by first stimulating cAMP formation. One example of a compound, which stimulates cAMP formation is forskolin. Forskolin bypasses the receptor and directly activates adenylyl cyclase. […]
This assay can be performed by any means known to one of skill in the art. […] Following an incubation period, the cells are lysed and the level of cAMP is determined.
The cAMP assay can be performed by any means known to one of skill in the art, for example, by performing a competitive immunoassay. […] Detection can be performed by any appropriate means, including, but not limited to, using a substrate solution and chemiluminescent readout.
Cells were plated in a 96 well format. […] Following a 30-minute incubation period, the cells were lysed and the level of cAMP was determined. […]
Detection was performed using a substrate solution and chemiluminescent readout. […]

T3 sequence (Q99500 whole entry): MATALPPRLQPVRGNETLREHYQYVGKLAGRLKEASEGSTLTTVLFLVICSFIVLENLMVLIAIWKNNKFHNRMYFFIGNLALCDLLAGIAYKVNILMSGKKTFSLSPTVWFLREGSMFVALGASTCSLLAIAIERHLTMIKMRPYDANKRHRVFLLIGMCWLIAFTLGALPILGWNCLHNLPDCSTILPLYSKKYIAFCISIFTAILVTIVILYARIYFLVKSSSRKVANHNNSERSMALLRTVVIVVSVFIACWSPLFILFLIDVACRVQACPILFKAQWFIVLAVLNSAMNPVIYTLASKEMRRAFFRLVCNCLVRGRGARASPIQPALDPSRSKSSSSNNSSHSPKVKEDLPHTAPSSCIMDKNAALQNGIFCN
T4 sequence (Q9H228 whole entry): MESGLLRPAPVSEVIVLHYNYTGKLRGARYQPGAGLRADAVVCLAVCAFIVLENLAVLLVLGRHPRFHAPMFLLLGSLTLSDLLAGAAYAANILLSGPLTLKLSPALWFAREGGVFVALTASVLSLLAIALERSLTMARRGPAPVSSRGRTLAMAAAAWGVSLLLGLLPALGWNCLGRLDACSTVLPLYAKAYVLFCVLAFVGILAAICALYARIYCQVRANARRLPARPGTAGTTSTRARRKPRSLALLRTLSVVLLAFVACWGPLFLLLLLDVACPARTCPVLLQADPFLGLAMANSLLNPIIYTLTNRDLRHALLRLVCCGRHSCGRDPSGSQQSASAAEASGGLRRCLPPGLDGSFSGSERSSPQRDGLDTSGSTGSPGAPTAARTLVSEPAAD
T7 sequence (O95136 whole entry): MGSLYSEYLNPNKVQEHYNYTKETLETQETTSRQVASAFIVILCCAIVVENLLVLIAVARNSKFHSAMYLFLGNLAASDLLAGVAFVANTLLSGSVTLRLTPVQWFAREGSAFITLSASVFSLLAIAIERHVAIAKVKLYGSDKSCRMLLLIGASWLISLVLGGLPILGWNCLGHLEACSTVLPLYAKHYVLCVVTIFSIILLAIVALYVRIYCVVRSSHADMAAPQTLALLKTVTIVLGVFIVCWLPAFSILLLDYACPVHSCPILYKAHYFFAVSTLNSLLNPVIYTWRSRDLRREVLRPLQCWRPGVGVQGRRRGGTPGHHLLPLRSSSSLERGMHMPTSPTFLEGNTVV
T2 sequence (Q92633 whole entry): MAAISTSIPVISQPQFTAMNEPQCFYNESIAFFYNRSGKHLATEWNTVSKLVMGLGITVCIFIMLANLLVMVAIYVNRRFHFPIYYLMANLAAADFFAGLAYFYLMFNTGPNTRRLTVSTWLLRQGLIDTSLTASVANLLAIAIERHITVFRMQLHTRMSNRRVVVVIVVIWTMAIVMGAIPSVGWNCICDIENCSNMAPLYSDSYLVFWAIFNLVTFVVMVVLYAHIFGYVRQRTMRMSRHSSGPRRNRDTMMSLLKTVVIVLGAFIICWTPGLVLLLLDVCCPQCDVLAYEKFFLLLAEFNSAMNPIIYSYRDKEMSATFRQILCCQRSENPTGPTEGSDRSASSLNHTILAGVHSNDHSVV
T1 sequence (Q9HBW0 whole entry): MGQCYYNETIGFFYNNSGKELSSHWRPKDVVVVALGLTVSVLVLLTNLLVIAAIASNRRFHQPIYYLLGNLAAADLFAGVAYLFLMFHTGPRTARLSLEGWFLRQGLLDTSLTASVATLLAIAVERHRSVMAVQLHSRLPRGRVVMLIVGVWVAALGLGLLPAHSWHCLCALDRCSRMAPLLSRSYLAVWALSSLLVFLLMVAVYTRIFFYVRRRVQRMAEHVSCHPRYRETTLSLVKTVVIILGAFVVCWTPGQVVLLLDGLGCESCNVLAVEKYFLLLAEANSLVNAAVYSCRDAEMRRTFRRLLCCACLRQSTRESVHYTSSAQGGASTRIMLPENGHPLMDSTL
T5 sequence (P21453 whole entry): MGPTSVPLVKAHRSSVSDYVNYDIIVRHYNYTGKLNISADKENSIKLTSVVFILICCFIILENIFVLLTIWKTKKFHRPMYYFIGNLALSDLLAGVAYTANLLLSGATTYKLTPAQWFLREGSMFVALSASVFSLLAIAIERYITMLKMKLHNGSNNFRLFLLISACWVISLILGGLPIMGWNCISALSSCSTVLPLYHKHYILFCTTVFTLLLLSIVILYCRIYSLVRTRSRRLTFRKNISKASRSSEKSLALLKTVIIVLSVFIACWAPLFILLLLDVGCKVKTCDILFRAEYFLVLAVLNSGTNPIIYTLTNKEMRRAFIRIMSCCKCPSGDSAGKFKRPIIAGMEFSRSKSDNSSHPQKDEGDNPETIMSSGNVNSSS
Sequence of Endothelin ETA (P25101 21-427): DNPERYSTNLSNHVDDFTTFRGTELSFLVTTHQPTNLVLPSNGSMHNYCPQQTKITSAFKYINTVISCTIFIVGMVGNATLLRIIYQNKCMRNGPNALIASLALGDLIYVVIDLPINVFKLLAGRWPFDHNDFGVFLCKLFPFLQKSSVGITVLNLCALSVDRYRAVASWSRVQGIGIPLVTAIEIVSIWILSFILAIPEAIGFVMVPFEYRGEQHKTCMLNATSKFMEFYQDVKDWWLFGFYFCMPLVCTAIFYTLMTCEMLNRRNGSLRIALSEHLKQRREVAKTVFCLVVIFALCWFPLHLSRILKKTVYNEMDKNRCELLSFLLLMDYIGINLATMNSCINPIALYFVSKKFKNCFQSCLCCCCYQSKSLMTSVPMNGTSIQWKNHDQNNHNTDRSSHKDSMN
Sequence of Angiotensin AT2 (P50052 whole entry): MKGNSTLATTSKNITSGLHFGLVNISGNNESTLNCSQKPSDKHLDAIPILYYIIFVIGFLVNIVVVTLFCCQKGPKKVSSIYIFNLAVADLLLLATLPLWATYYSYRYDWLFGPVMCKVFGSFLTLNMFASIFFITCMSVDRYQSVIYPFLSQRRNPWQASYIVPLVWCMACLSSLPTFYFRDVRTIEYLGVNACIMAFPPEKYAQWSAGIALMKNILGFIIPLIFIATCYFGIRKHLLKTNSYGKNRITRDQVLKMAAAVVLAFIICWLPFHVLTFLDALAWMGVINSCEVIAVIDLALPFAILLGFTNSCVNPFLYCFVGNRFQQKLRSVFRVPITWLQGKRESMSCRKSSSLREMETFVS
Sequence of Histamine H1, Central (P31389 whole entry): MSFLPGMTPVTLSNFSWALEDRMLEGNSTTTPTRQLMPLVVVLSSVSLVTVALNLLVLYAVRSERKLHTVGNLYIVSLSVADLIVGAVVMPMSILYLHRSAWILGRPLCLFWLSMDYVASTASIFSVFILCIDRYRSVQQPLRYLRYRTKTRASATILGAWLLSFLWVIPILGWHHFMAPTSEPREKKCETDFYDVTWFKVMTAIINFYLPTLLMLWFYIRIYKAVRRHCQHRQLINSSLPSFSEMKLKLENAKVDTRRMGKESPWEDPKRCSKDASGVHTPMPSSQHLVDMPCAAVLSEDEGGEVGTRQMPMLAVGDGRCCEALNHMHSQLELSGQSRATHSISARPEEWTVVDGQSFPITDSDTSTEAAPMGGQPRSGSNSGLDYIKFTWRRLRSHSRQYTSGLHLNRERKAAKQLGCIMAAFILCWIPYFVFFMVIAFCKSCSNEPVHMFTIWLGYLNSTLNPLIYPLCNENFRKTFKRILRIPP
Sequence of Dopamine D2L (P14416 whole entry): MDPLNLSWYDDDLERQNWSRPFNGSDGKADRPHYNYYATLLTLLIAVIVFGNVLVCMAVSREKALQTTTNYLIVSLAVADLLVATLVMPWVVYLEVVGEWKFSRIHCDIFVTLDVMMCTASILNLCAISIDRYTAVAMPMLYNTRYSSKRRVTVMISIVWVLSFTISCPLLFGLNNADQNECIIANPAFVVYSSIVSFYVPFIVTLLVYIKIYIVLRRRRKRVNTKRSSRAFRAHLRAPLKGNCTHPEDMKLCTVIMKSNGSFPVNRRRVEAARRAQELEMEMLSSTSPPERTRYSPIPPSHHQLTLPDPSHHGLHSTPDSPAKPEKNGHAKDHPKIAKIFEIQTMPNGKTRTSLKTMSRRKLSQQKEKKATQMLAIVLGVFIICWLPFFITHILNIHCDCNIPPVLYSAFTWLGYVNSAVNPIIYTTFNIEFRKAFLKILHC

## CCOc1ccccc1N1C(=O)CC(N(O)c2ccccc2)C1=O (centres unmarked) [Compound 101, 1-(2-Ethoxyphenyl)-3-(hydroxyphenylamino)-pyrrolidine-2,5-dione]
Edg-4 receptor
  IC50: > 20 µM
  inhibition of LPA-stimulated calcium increases: did not inhibit
Edg-2 receptor
  inhibition of the Edg 2 receptor: specifically inhibit
  IC50: 1.63 µM
  Fold Selective: >12.3 Fold
Edg 3 receptor
  IC50: > 20 µM
  inhibition of S1P-stimulated calcium increases: did not inhibit
Edg 8 receptor
  IC50: > 20 µM
  inhibition of S1P-stimulated calcium increases: did not inhibit
[1]
  activity at various targets tested, including other GPCRs, ion channels, and enzymes: did not demonstrate any significant activity
Dopamine D2L
  activity in radioligand binding assay, Dopamine D2L: no significant activity
Histamine H1, Central
  activity in radioligand binding assay, H1 central: no significant activity
[2]
  activity in radioligand binding assay, Serotonin 5HT1 non-selective: no significant activity
Angiotensin AT2
  activity in radioligand binding assay, Angiotensin AT2: no significant activity
[3]
  activity in radioligand binding assay, Calcium Channels Type L, DHP: no significant activity
Endothelin ETA
  activity in radioligand binding assay, Endothelin ETA: no significant activity
Adrenergic β
  activity in radioligand binding assay, Adrenergic Beta, non-selective: no significant activity
[4]
  activity in radioligand binding assay, Muscarinic, non-selective, central: no significant activity
Adrenergic α2
  activity in radioligand binding assay, Adrenergic Alpha 2, non-selective: no significant activity
[5]
  activity in radioligand binding assay, Adrenergic Alpha 1, non-selective: no significant activity
Edg 1 receptor
  IC50: > 20 µM
  inhibition of S1P-stimulated calcium increases: did not inhibit
Edg-7 receptor
  IC50: > 20 µM
  inhibition of LPA-stimulated calcium increases: did not inhibit
Edg 5 receptor
  IC50: > 20 µM
  inhibition of S1P-stimulated calcium increases: did not inhibit

## CCn1nc(C)c(-c2ccccc2O)c1-c1ccccc1 [Compound 103, 2-(1-Ethyl-3-methyl-5-phenyl-1H-pyrazol-4-yl)-phenol]
[6]
  inhibition of LPA-stimulated calcium mobilization: almost completely inhibited
Edg-4 receptor
  IC50: > 20 µM
  inhibition of LPA-stimulated calcium increases: did not inhibit
Edg-2 receptor
  inhibition of the Edg 2 receptor: specifically inhibited
  IC50: 0.51 µM
  Fold Selective: >39.3 Fold
[7]
  reversal of the inhibitory effects of LPA on forskolin-stimulated cAMP production: reverses the inhibitory effects of LPA
Edg 3 receptor
  IC50: > 20 µM
  inhibition of S1P-stimulated calcium increases: did not inhibit
Edg 8 receptor
  IC50: > 20 µM
  inhibition of S1P-stimulated calcium increases: did not inhibit
[1]
  activity at various targets tested, including other GPCRs, ion channels, and enzymes: did not demonstrate any significant activity
Edg 1 receptor
  IC50: > 20 µM
  inhibition of S1P-stimulated calcium increases: did not inhibit
Edg-7 receptor
  IC50: > 20 µM
  inhibition of LPA-stimulated calcium increases: did not inhibit
Edg 5 receptor
  IC50: > 20 µM
  inhibition of S1P-stimulated calcium increases: did not inhibit

## CCOc1ccccc1N1C(=O)CC(N(O)c2ccc(F)cc2)C1=O (centres unmarked) [Compound 111, 1-(2-Ethoxyphenyl)-3-[(4-fluorophenyl)hydroxylamino]pyrrolidine-2,5-dione]
other
  melting point: 123 to 124 °C

## O=C(CC(=O)C(F)(F)F)Nc1cc(-c2ccccc2)n[nH]1 [Compound 201, 4,4,4-trifluoro-3-oxo-N-(5-phenyl-2H-pyrazol-3-yl)-butyramide, reference compound]
[6]
  inhibition of LPA-stimulated calcium mobilization: little to no effect
[7]
  reversal of the inhibitory effects of LPA on forskolin-stimulated cAMP production: little to no effect
